Results: US8535730B1, “Anticalculus oral composition” (Colgate-Palmolive Company, priority 1985, dated 2013)
Where two headings read alike, the source gives them in different places.

Experiments:
[1] = Procedure: The in vitro formation of HAP is measured titrimetrically via a pH stat procedure. Stock solutions of 0.1M CaCl2 and 0.1M NaH2PO4 are prepared fresh in carbonate-free deionized distilled water. To 23 ml CO2-free deionized water 1.0 ml. of the stock phosphate solution and 1.0 ml. of an aqueous solution of 1×10^−4 of the anticalculus agent being tested are added followed by 1.0 ml. of the stock calcium-chloride solution which initiates the reaction. The reaction is conducted at pH 7.4 under a nitrogen atmosphere. Consumption of 0.1N NaOH is recorded automatically from which the time required for crystal formation is determined.
[2] = tested on: acid phosphatase, alkaline phosphatase, and inorganic pyrophosphatase; conditions: for Percent Orthophosphate Released in 90 min.: pH 7.0, 37° C.
Procedure: Enzymatic hydrolysis is conducted in 100 millimolar morpholinopropane sulfonic acid—NaOH buffer solution (pH 7.0) containing 1.3 mg./ml of TSPP. Inhibitors of this invention are added (except to the control) to a final concentration of 1,000 ppm fluoride ion (from NaF) and 0.5% of the sodium salt of hydrolyzed methoxyethylene-maleic anhydride (1:1) copolymer, M.W. 70,000 (Gantrez S-97 Pharmaceutical Grade). Equal activities of acid phosphatase, alkaline phosphatase, and inorganic pyrophosphatase are then added to yield a total phosphatase activity of 0.3 units/ml. Samples of the test solution are taken and total orthophosphate available in each sample measured after 3 hours hydrolysis in 4N HCl at 100° C. The reaction mixture is incubated at 37° C. with shaking and aliquots taken at appropriate times through at least 90 minutes for orthophosphate determination.

| Structure (SMILES) | HAP formation inhibition results compared with TSPP (in words) ([1]; water, saliva, pyrophosphatase, alkaline phosphatase, TKPP instead of TSPP) | Enzymatic hydrolysis results compared with TSPP (in words) ([2]; equivalent amounts of TKPP substituted for TSPP, with and without inhibitors) | Time of Crystal Growth Inhibition ([1]; Water, pH 7.4, nitrogen atmosphere) [h] | Delay of HAP formation (in words) ([1]; in water) | Time of Crystal Growth Inhibition ([1]; incubated with Alk. Phosphatase, pH 7.4) [h] | Time of Crystal Growth Inhibition ([1]; incubated with Pyrophosphatase, pH 7.4) [h] | Time of Crystal Growth Inhibition ([1]; incubated with Saliva, pH 7.4) [h] | Delay period of HAP formation (in words) ([1]; incubated with pyrophosphatase and alkaline phosphatase) | Effectiveness in delaying HAP formation (in words) ([1]; incubated with saliva) | Percent Orthophosphate Released in 90 min. ([2]; Control (no inhibitors), 1.3 mg./ml TSPP, total phosphatase activity 0.3 units/ml) [%] | Percent Orthophosphate Released in 90 min. ([2]; With Inhibitors: 1,000 ppm fluoride ion (from NaF) and 0.5% Gantrez S-97, 0.3 units/ml phosphatase) [%] | Percent Relative Protection (reduction of hydrolysis of P-O-P bonds with inhibitors) ([2]; With inhibitors vs control, 90 min.) [%] |
| --- | --- | --- | --- | --- | --- | --- | --- | --- | --- | --- | --- | --- |
| O=P([O-])([O-])OP(=O)([O-])[O-].[K+].[K+].[K+].[K+] [TKPP, tetrapotassium pyrophosphate] | Substantially the same results | Substantially the same results | – | – | – | – | – | – | – | – | – | – |
| O=P([O-])([O-])OP(=O)([O-])[O-].[Na+].[Na+].[Na+].[Na+] [TSPP, Tetrasodium pyrophosphate] | – | – | 0.8 | significantly delays HAP formation | 0.0 | 0.3 | 0.4 | drastically reduces the delay period | drastically reduced | 98 | 58 | 41 |
